Series [1] concerns central nervous system. Nature of the series: Decrease of spontaneous activity in mice (sedative effect). Format: in vivo. The settings on record: Mus musculus, ip, read-out: ED50, Spontaneous activity. The procedure:
(§1) Decreasing the spontaneous activity in mice after intraperitoneal administration of an effective amount of the compounds was taken as a measure of the sedative effect, while impairment of motor coordination and righting reflex were related to hypnotic properties. The myorelaxing characteristics were evaluated by considering the body tone, while the anxiety-relieving effect was measured on the basis of the inhibition of the secondary conditioned avoidance response.

Series [2] deals with central nervous system. The experiment in a line: Impairment of motor coordination and righting reflex in mice (hypnotic properties). Format: in vivo. Conditions: Mus musculus, ip, read-out: ED50, Impairment of motor coordination and righting reflex. The procedure: as §1
The test system of series [3] is central nervous system. Nature of the series: Body tone in mice (myorelaxing characteristics). Format: in vivo. Conditions: Mus musculus, ip, read-out: ED50, Body tone. The procedure: as §1
Series [4] relates to central nervous system. The experiment in a line: Inhibition of secondary conditioned avoidance response in mice (anxiety-relieving effect). The series is classed as in vivo. Conditions: Mus musculus, ip, read-out: ED50, Secondary conditioned avoidance response. The procedure:
as §1

Series [5] can be described thus: Toxicity, LD50 in mice i.p. The settings on record: mouse, in vivo, ip.
For series [6], the system named is carrageenin-induced edema. Nature of the series: Carrageenin-induced edema test (anti-inflammatory activity). The series is classed as in vivo. The settings on record: 100 mg/kg p.o., rats. The source says:
|Carrageenin-induced edema test
(In general: The carrageenan paw model is a standard test of acute inflammation.)

The nature of series [7]: LD50 to which the edema test dose is related. The series is classed as in vivo. Conditions: rats.

This note sets out measurements from US4041048A, “3,2-Benzoxazepine derivatives” (Gruppo Lepetit S.p.A., priority 1971, dated 1977).

Structures are written as SMILES. Some results are limits rather than exact numbers.

Turning to `CC1NOCCc2ccccc21` (stereo not drawn) [Example 4, 1-Methyl-1,2,4,5-tetrahydro-3,2-benzoxazepine], the ED50 (commonly the dose at which the effect has come halfway, by size or by number of responders) in the series on central nervous system [1] (i.p. in mice) was 100 mg/kg; in the series on central nervous system [2] (i.p. in mice), 60 mg/kg; with central nervous system [3] (i.p. in mice) it was 20 mg/kg; in the series on central nervous system [4] (i.p. in mice) it was 60 mg/kg.

Take `CC1c2ccccc2CCON1C(N)=O` (stereo not drawn) [Example 6, 2-Carbamyl-1-methyl-1,2,4,5-tetrahydro-3,2-benzoxazepine]: the ED50 with central nervous system [1] (i.p. in mice) was found to be 60 mg/kg; in the series with central nervous system [2] (i.p. in mice), 60 mg/kg; in the series on central nervous system [3] (i.p. in mice), 80 mg/kg; in the series on central nervous system [4] (i.p. in mice), 15 mg/kg. For the same compound, in series [5], the LD50 (commonly the dose expected to kill half of the subjects tested) is over 500 mg/kg.

For the compound `CC1c2ccccc2CCON1C` (stereo not drawn) [Example 7, 1,2-Dimethyl-1,2,4,5-tetrahydro-3,2-benzoxazepine], the “% Decrease of the edema” value in series [6] is recorded as 30%. For the same compound, the LD50 in series [5] is over 500 mg/kg. Besides, the “dose of 100 mg/kg per os as fraction of the LD50 value” in series [7] is “about one-tenth to about one-fifth”.

Consider `NC(=O)OCCN1Cc2ccccc2CCO1` [Example 9, 2-(2-Carbamyloxyethyl)-1,2,4,5-tetrahydro-3,2-benzoxazepine], for which the ED50 in the series on central nervous system [1] is 100 mg/kg; in the series with central nervous system [2] it was 100 mg/kg; in the series with central nervous system [3], 300 mg/kg; in the series on central nervous system [4], 30 mg/kg. For the same compound, the LD50 in series [5] is over 500 mg/kg.

Consider `CCN(CC)C(=O)N1OCCc2ccccc2C1C` (stereo not drawn) [Example 11, 2-Diethylcarbamyl-1-methyl-1,2,4,5-tetrahydro-3,2-benzoxazepine], for which the “% Decrease of the edema” value in series [6] is listed as 31%. In series [5], the LD50 is over 500 mg/kg. In series [7], the “dose of 100 mg/kg per os as fraction of the LD50 value” is listed as “about one-tenth to about one-fifth”.

For the compound `CC(C)=CC(=O)N1OCCc2ccccc2C1C` (stereo not drawn) [Example 12, 1-Methyl-2-(3-methyl-2-butenoyl)-1,2,4,5-tetrahydro-3,2-benzoxazepine], in series [5], the LD50 is over 500 mg/kg.

As for `CNC(=O)N1OCCc2ccccc2C1C` (stereo not drawn) [Example 15, 1-Methyl-2-methylcarbamyl-1,2,4,5-tetrahydro-3,2-benzoxazepine], in series [6], the “% Decrease of the edema” value was 31.5%. In addition, the LD50 in series [5] is over 500 mg/kg. Also, the “dose of 100 mg/kg per os as fraction of the LD50 value” in series [7] is listed as “about one-tenth to about one-fifth”.

`CN1Cc2ccccc2CCO1` [Example 16]: the “% Decrease of the edema” value in series [6] was determined as 30.5%. For the same compound, the median effective dose (ED50) in the series on central nervous system [1] (i.p. in mice) stood at 100 mg/kg; in the series with central nervous system [2] (i.p. in mice), 120 mg/kg; with central nervous system [3] (i.p. in mice) it was 10 mg/kg; in the series with central nervous system [4] (i.p. in mice), 40 mg/kg. Besides, the LD50 in series [5] was over 500 mg/kg. The “dose of 100 mg/kg per os as fraction of the LD50 value” in series [7] is on record as “about one-tenth to about one-fifth”.

`C=CCN1OCCc2ccccc2C1C` (stereo not drawn) [Example 17]: the LD50 in series [5] was over 500 mg/kg.

On to `CC(=O)N1OCCc2ccccc2C1C` (stereo not drawn) [Example 18, 2-acetyl-1-methyl-1,2,4,5-tetrahydro-3,2-benzoxazepine], for which the ED50 is 100 mg/kg in the series with central nervous system [1] (i.p. in mice), 60 mg/kg in the series with central nervous system [2] (i.p. in mice), 200 mg/kg in the series on central nervous system [3] (i.p. in mice) and 60 mg/kg in the series on central nervous system [4] (i.p. in mice).

Regarding `CC1c2ccccc2CCON1C(=O)N1CCOCC1` (stereo not drawn) [Example 24], the “% Decrease of the edema” value in series [6] stood at 32%. In series [5], this compound had an LD50 of over 500 mg/kg. Moreover, the “dose of 100 mg/kg per os as fraction of the LD50 value” in series [7] is recorded as “about one-tenth to about one-fifth”.
